Experiment: Ready-to-use formulation stability at 25° C./60% RH, 5 mg/mL (R,R)-pyrodach-2 in 10 mM Bicarbonate Buffer at pH 8.6, 10 mL vials
Format: physicochemical

Structure (SMILES): O=P1(O)OP(=O)(O)[O][Pt]2([NH][C@@H]3CCCC[C@H]3[NH]2)[O]1 (stereo partly drawn) [(R,R)-pyrodach-2, (R,R)-trans-1,2-cyclohexanediamine-(dihydrogenpyrophosphato)platinum(II)]
- Potency (Assay) (1 month): 98.9%
- Purity (% Area) (1 month): 97.44%
- Unknown Impurities RRT~0.29 (1 month): 0.16%
- Unknown Impurities RRT~0.42 (1 month): 0.21%
- Unknown Impurities RRT~0.49 (1 month): 0.75%
- Unknown Impurities RRT~0.59 (1 month): 0.15%
- Unknown Impurities RRT~0.73 (1 month): 1.03%
- Unknown Impurities RRT~1.82 (1 month): ND (ND = Not Detected, or <0.05%)
- Unknown Impurities RRT~2.85 (1 month): ND (ND = Not Detected, or <0.05%)
- Unknown Impurities RRT~3.00 (1 month): ND (ND = Not Detected, or <0.05%)
- Unknown Impurities RRT~3.15 (1 month): ND (ND = Not Detected, or <0.05%)
- Unknown Impurities RRT~3.30 (1 month): ND (ND = Not Detected, or <0.05%)
- Unknown Impurities RRT~3.45 (1 month): ND (ND = Not Detected, or <0.05%)
- Unknown Impurities RRT~3.74 (1 month): 0.08%
- Unknown Impurities RRT~4.27 (1 month): ND (ND = Not Detected, or <0.05%)
- Unknown Impurities RRT~4.99 (1 month): ND (ND = Not Detected, or <0.05%)
- pH (1 month): 8.68
- Potency (Assay) (1 week): 101.7%
- Purity (% Area) (1 week): 97.74%
- Unknown Impurities RRT~0.29 (1 week): 0.11%
- Unknown Impurities RRT~0.42 (1 week): 0.05%
- Unknown Impurities RRT~0.49 (1 week): 0.78%
- Unknown Impurities RRT~0.59 (1 week): 0.06%
- Unknown Impurities RRT~0.73 (1 week): 1.12%
- Unknown Impurities RRT~1.82 (1 week): ND (ND = Not Detected, or <0.05%)
- Unknown Impurities RRT~2.85 (1 week): ND (ND = Not Detected, or <0.05%)
- Unknown Impurities RRT~3.00 (1 week): ND (ND = Not Detected, or <0.05%)
- Unknown Impurities RRT~3.15 (1 week): ND (ND = Not Detected, or <0.05%)
- Unknown Impurities RRT~3.30 (1 week): ND (ND = Not Detected, or <0.05%)
- Unknown Impurities RRT~3.45 (1 week): ND (ND = Not Detected, or <0.05%)
- Unknown Impurities RRT~3.74 (1 week): ND (ND = Not Detected, or <0.05%)
- Unknown Impurities RRT~4.27 (1 week): ND (ND = Not Detected, or <0.05%)
- Unknown Impurities RRT~4.99 (1 week): ND (ND = Not Detected, or <0.05%)
- pH (1 week): 8.57
- Potency (Assay) (2 month): 100.4%
- Purity (% Area) (2 month): 96.45%
- Unknown Impurities RRT~0.29 (2 month): 0.19%
- Unknown Impurities RRT~0.42 (2 month): 0.56%
- Unknown Impurities RRT~0.49 (2 month): 0.79%
- Unknown Impurities RRT~0.59 (2 month): 0.26%
- Unknown Impurities RRT~0.73 (2 month): 0.97%
- Unknown Impurities RRT~1.82 (2 month): ND (ND = Not Detected, or <0.05%)
- Unknown Impurities RRT~2.85 (2 month): 0.12%
- Unknown Impurities RRT~3.00 (2 month): ND (ND = Not Detected, or <0.05%)
- Unknown Impurities RRT~3.15 (2 month): ND (ND = Not Detected, or <0.05%)
- Unknown Impurities RRT~3.30 (2 month): ND (ND = Not Detected, or <0.05%)
- Unknown Impurities RRT~3.45 (2 month): 0.05%
- Unknown Impurities RRT~3.74 (2 month): 0.31%
- Unknown Impurities RRT~4.27 (2 month): ND (ND = Not Detected, or <0.05%)
- Unknown Impurities RRT~4.99 (2 month): 0.07%
- pH (2 month): 8.73
- Potency (Assay) (2 week): 99.9%
- Purity (% Area) (2 week): 97.77%
- Unknown Impurities RRT~0.29 (2 week): 0.12%
- Unknown Impurities RRT~0.42 (2 week): 0.10%
- Unknown Impurities RRT~0.49 (2 week): 0.77%
- Unknown Impurities RRT~0.59 (2 week): ND (ND = Not Detected, or <0.05%)
- Unknown Impurities RRT~0.73 (2 week): 1.17%
- Unknown Impurities RRT~1.82 (2 week): ND (ND = Not Detected, or <0.05%)
- Unknown Impurities RRT~2.85 (2 week): ND (ND = Not Detected, or <0.05%)
- Unknown Impurities RRT~3.00 (2 week): ND (ND = Not Detected, or <0.05%)
- Unknown Impurities RRT~3.15 (2 week): ND (ND = Not Detected, or <0.05%)
- Unknown Impurities RRT~3.30 (2 week): ND (ND = Not Detected, or <0.05%)
- Unknown Impurities RRT~3.45 (2 week): ND (ND = Not Detected, or <0.05%)
- Unknown Impurities RRT~3.74 (2 week): ND (ND = Not Detected, or <0.05%)
- Unknown Impurities RRT~4.27 (2 week): ND (ND = Not Detected, or <0.05%)
- Unknown Impurities RRT~4.99 (2 week): ND (ND = Not Detected, or <0.05%)
- pH (2 week): 8.64
- Potency (Assay) (3 month): 101.6%
- Purity (% Area) (3 month): 96.08%
- Unknown Impurities RRT~0.29 (3 month): 0.27%
- Unknown Impurities RRT~0.42 (3 month): 0.76%
- Unknown Impurities RRT~0.49 (3 month): 0.78%
- Unknown Impurities RRT~0.59 (3 month): 0.25%
- Unknown Impurities RRT~0.73 (3 month): 0.92%
- Unknown Impurities RRT~1.82 (3 month): ND (ND = Not Detected, or <0.05%)
- Unknown Impurities RRT~2.85 (3 month): 0.17%
- Unknown Impurities RRT~3.00 (3 month): ND (ND = Not Detected, or <0.05%)
- Unknown Impurities RRT~3.15 (3 month): ND (ND = Not Detected, or <0.05%)
- Unknown Impurities RRT~3.30 (3 month): ND (ND = Not Detected, or <0.05%)
- Unknown Impurities RRT~3.45 (3 month): ND (ND = Not Detected, or <0.05%)
- Unknown Impurities RRT~3.74 (3 month): 0.40%
- Unknown Impurities RRT~4.27 (3 month): 0.06%
- Unknown Impurities RRT~4.99 (3 month): 0.14%
- pH (3 month): 9.01
- Potency (Assay) (3 week): 100.3%
- Purity (% Area) (3 week): 97.33%
- Unknown Impurities RRT~0.29 (3 week): 0.16%
- Unknown Impurities RRT~0.42 (3 week): 0.15%
- Unknown Impurities RRT~0.49 (3 week): 0.76%
- Unknown Impurities RRT~0.59 (3 week): 0.12%
- Unknown Impurities RRT~0.73 (3 week): 1.26%
- Unknown Impurities RRT~1.82 (3 week): ND (ND = Not Detected, or <0.05%)
- Unknown Impurities RRT~2.85 (3 week): ND (ND = Not Detected, or <0.05%)
- Unknown Impurities RRT~3.00 (3 week): ND (ND = Not Detected, or <0.05%)
- Unknown Impurities RRT~3.15 (3 week): ND (ND = Not Detected, or <0.05%)
- Unknown Impurities RRT~3.30 (3 week): ND (ND = Not Detected, or <0.05%)
- Unknown Impurities RRT~3.45 (3 week): ND (ND = Not Detected, or <0.05%)
- Unknown Impurities RRT~3.74 (3 week): 0.06%
- Unknown Impurities RRT~4.27 (3 week): ND (ND = Not Detected, or <0.05%)
- Unknown Impurities RRT~4.99 (3 week): ND (ND = Not Detected, or <0.05%)
- pH (3 week): 8.67
- Potency (Assay) (4 month): 103.0%
- Purity (% Area) (4 month): 95.98%
- Unknown Impurities RRT~0.29 (4 month): 0.16%
- Unknown Impurities RRT~0.42 (4 month): 0.96%
- Unknown Impurities RRT~0.49 (4 month): 0.94%
- Unknown Impurities RRT~0.59 (4 month): 0.17%
- Unknown Impurities RRT~0.73 (4 month): 0.73%
- Unknown Impurities RRT~1.82 (4 month): ND (ND = Not Detected, or <0.05%)
- Unknown Impurities RRT~2.85 (4 month): 0.17%
- Unknown Impurities RRT~3.00 (4 month): ND (ND = Not Detected, or <0.05%)
- Unknown Impurities RRT~3.15 (4 month): ND (ND = Not Detected, or <0.05%)
- Unknown Impurities RRT~3.30 (4 month): ND (ND = Not Detected, or <0.05%)
- Unknown Impurities RRT~3.45 (4 month): ND (ND = Not Detected, or <0.05%)
- Unknown Impurities RRT~3.74 (4 month): 0.58%
- Unknown Impurities RRT~4.27 (4 month): 0.06%
- Unknown Impurities RRT~4.99 (4 month): 0.20%
- pH (4 month): 8.90
- Potency (Assay) (6 month): 99.2%
- Purity (% Area) (6 month): 95.03%
- Unknown Impurities RRT~0.29 (6 month): 0.22%
- Unknown Impurities RRT~0.42 (6 month): 1.29%
- Unknown Impurities RRT~0.49 (6 month): 0.80%
- Unknown Impurities RRT~0.59 (6 month): 0.32%
- Unknown Impurities RRT~0.73 (6 month): 0.82%
- Unknown Impurities RRT~1.82 (6 month): ND (ND = Not Detected, or <0.05%)
- Unknown Impurities RRT~2.85 (6 month): 0.15%
- Unknown Impurities RRT~3.00 (6 month): 0.07%
- Unknown Impurities RRT~3.15 (6 month): ND (ND = Not Detected, or <0.05%)
- Unknown Impurities RRT~3.30 (6 month): 0.05%
- Unknown Impurities RRT~3.45 (6 month): ND (ND = Not Detected, or <0.05%)
- Unknown Impurities RRT~3.74 (6 month): 0.69%
- Unknown Impurities RRT~4.27 (6 month): 0.08%
- Unknown Impurities RRT~4.99 (6 month): 0.36%
- pH (6 month): 8.93
- Potency (Assay) (9 month): 100.3%
- Purity (% Area) (9 month): 93.82%
- Unknown Impurities RRT~0.29 (9 month): 0.15%
- Unknown Impurities RRT~0.42 (9 month): 1.88%
- Unknown Impurities RRT~0.49 (9 month): 0.84%
- Unknown Impurities RRT~0.59 (9 month): 0.32%
- Unknown Impurities RRT~0.73 (9 month): 0.43%
- Unknown Impurities RRT~1.82 (9 month): 0.05%
- Unknown Impurities RRT~2.85 (9 month): 0.32%
- Unknown Impurities RRT~3.00 (9 month): ND (ND = Not Detected, or <0.05%)
- Unknown Impurities RRT~3.15 (9 month): 0.07%
- Unknown Impurities RRT~3.30 (9 month): 0.10%
- Unknown Impurities RRT~3.45 (9 month): 0.06%
- Unknown Impurities RRT~3.74 (9 month): 0.88%
- Unknown Impurities RRT~4.27 (9 month): 0.13%
- Unknown Impurities RRT~4.99 (9 month): 0.66%
- pH (9 month): 9.08
- Potency (Assay) (12 month): 98.4%
- Purity (% Area) (12 month): 92.23%
- Unknown Impurities RRT~0.29 (12 month): 0.14%
- Unknown Impurities RRT~0.42 (12 month): 2.20%
- Unknown Impurities RRT~0.49 (12 month): 0.86%
- Unknown Impurities RRT~0.59 (12 month): 0.32%
- Unknown Impurities RRT~0.73 (12 month): 0.97%
- Unknown Impurities RRT~1.82 (12 month): 0.06%
- Unknown Impurities RRT~2.85 (12 month): 0.37%
- Unknown Impurities RRT~3.00 (12 month): 0.06%
- Unknown Impurities RRT~3.15 (12 month): 0.06%
- Unknown Impurities RRT~3.30 (12 month): 0.12%
- Unknown Impurities RRT~3.45 (12 month): 0.05%
- Unknown Impurities RRT~3.74 (12 month): 1.07%
- Unknown Impurities RRT~4.27 (12 month): 0.15%
- Unknown Impurities RRT~4.99 (12 month): 1.02%
- pH (12 month): 9.07
- Potency (Assay) (Initial): 100.3%
- Purity (% Area) (Initial): 98.04%
- Unknown Impurities RRT~0.29 (Initial): 0.11%
- Unknown Impurities RRT~0.42 (Initial): ND (ND = Not Detected, or <0.05%)
- Unknown Impurities RRT~0.49 (Initial): 0.62%
- Unknown Impurities RRT~0.59 (Initial): ND (ND = Not Detected, or <0.05%)
- Unknown Impurities RRT~0.73 (Initial): 1.05%
- Unknown Impurities RRT~1.82 (Initial): ND (ND = Not Detected, or <0.05%)
- Unknown Impurities RRT~2.85 (Initial): ND (ND = Not Detected, or <0.05%)
- Unknown Impurities RRT~3.00 (Initial): ND (ND = Not Detected, or <0.05%)
- Unknown Impurities RRT~3.15 (Initial): ND (ND = Not Detected, or <0.05%)
- Unknown Impurities RRT~3.30 (Initial): ND (ND = Not Detected, or <0.05%)
- Unknown Impurities RRT~3.45 (Initial): ND (ND = Not Detected, or <0.05%)
- Unknown Impurities RRT~3.74 (Initial): ND (ND = Not Detected, or <0.05%)
- Unknown Impurities RRT~4.27 (Initial): ND (ND = Not Detected, or <0.05%)
- Unknown Impurities RRT~4.99 (Initial): ND (ND = Not Detected, or <0.05%)
- pH (Initial): 8.60
